Test results: US4973576A, “Bisphophonic acid derivatives and pharmaceutical compositions containing the same” (Yamanouchi Pharmaceutical Co., Ltd., priority 1987, dated 1990)
Several values for one entry are separate records, joined by “and”; a condition that tells them apart may be missing. Identical values can stand only once.

Columns and labels:
adjuvant arthritis [1] = experiment: Experiment (3)-II: prophylactic effect on adjuvant arthritis in rats; type: in vivo, male Lewis rats; settings: for Thickness of Paw, Left: adjuvant-injected paw; for Thickness of Paw, Right: opposite paw
Procedure: (§1) Specifically, for investigation of the anti-arthritic effect, experimental models of adjuvant arthritis which is resemble to rheumatoid arthritis in human were used in two test methods. In one method to test the therapeutic effect of the compounds, the compounds to be tested were administered to the animals already having the adjuvant arthritis. In the other method to test the prophylactic effect of the compounds, these were administered after the adjuvant administration, and the expression and progress of the resulting arthritis, if any, was observed.
0.05 ml of the suspension of dry dead bacilli of Mycobacterium butyricum as suspended in liquid paraffin in a proportion of 6 mg/ml was subcutaneously injected to male Lewis rats (6 to 7-week) in the left hind paw. After the adjuvant injection, the compound to be tested was administered to the rats once a day for 21 days. Next day after the last administration, the thickness of the both hind paws of the rats was measured.
(§2) For the Experiments (3)-I and (3)-II, the compounds of the present invention were dissolved, using sodium hydroxide and hydrochloric acid in physiological saline (pH 7.4), for subcutaneous administration, in such amount that the dose amounted to 2 ml/kg, and for oral administration, in distilled water (pH 7.4) so that the dose amounted to 5 ml/kg; and indometacin (as comparative drug) was suspended in 0.5% methyl cellulose solution so that the dose amounted to 5 ml/kg. Each rat was weighed at the first day of starting the administration of the compound to be tested and at the last day of the administration of the compound, and the difference of the weight there between (ΔB.W.) was obtained.
(§3) The results for each group were expressed in terms of mean ±S.E. (standard error) and comparison was made among the groups by testing by one-way analysis of variance. The significance level was taken at 5%.

[2] = system: hypercalcemia induced by administration of parathyroid hormone (PTH); experiment: Inhibitory effect on hypercalcemia induced by PTH in rats (serum Ca++); type: in vivo, male Wistar rats; settings: mean ± S.E.
Procedure: Rats of hypercalcemia induced by administration of parathyroid hormone (hereinafter referred to as "PTH") were used, and the decrement of the serum calcium amount by administration of the compound was measured.
30 μg/kg of human 1-34 PTH (manufactured by Peptide Laboratory) which was dissolved in a 0.1% BSA (bovine serum albumin)-containing physiological saline (content of the PTH is 6 μg/ml) was intravenously injected in an amount of 30 μg/kg (5 ml/kg as the solution) to 5-week male Wistar rats which had been fasting for 20 hours. Only 0.1% BSA-containing physiological saline was injected to the normal control group in the same manner. 45 minutes after the PTH injection, the rats were etherized and then subjected to celiotomy, whereby the blood was collected from the abdominal cava with a vacuum blood-collecting tube. The blood collected was immediately centrifuged by 3000 rpm, at 4° C. for 10 minutes to isolate the serum. The ionized calcium (Ca^++) concentration in the serum was immediately measured with a Ca^++ meter (Sera 250, manufactured by Horiba Manufacturing Co.).
The compounds of the present invention were dissolved using sodium hydroxide and hydrochloric acid, in physiological saline (pH 7.4), for subcutaneous administration, in such amounts that the dose amounted to 2 ml/kg, and for oral administration, in distilled water (pH 7.4) so that the dose amounted to 5 ml/kg. They were administered 24 or 72 hours before the PTH injection. A physiological saline or a distilled water was administered to the normal control group and the control group, in the same manner. Salmon calcitonin (SCT, manufactured by Armour Co.) was dissolved in physiological saline so that the dose amounted to 2 ml/kg, and then subcutaneously administered 30 minutes before the PTH injection.
The results for each group were expressed in terms of mean±S.E. (standard error) and comparison was made among the groups by testing by one-way analysis of variance. The significance level was taken at 5%.

[3] = Acute toxicity test in rats; type: in vivo; settings: sc, 10 mg/kg/day for continuous two weeks
Procedure: The compound of Manufacture Example 1 was subcutaneously injected to rats in an amount of 10 mg/kg/day for continuous two weeks, and no rats died.

[4] = system: immobilization-induced atrophy of bone; experiment: Inhibition of bone resorption: immobilization-induced (neurectomy) atrophy of bone in rats; type: in vivo, Wistar rats; settings: for Left humerus Ashed weight / Left humerus Ashed weight / Dry weight / Left humerus Dry weight: 2 weeks; for Difference of Bone Ash Content (b): nontreated minus treated humerus ashed weight; for Difference of Bone Weight (a): nontreated minus treated humerus dry weight
adjuvant arthritis [5] = experiment: Experiment (3)-I: therapeutic effect on adjuvant arthritis in rats; type: in vivo, male Lewis rats
Procedure: as §1
0.1 ml of a suspension of dry dead cells of Mycobacterium butyricum as suspended in liquid paraffin in a proportion of 6 mg/ml was subcutaneously injected to male Lewis rats (7-week) in the tail. After 17 or 18 days, the thickness of the both hind paws was measured. One group comprising six rats in which the arthritis was noticeably observed was isolated. After the grouping day, the compound to be tested was subcutaneously or orally administered once a day for 14 days to the rats. Next day after the last administration, the thickness of the soles of the both hind legs was again measured.
as §2, §3

[6] = sc, 0.1 mg/kg once a day 21 days
[7] = sc, 0.3 mg/kg once a day 21 days
[8] = sc, 1.0 mg/kg once a day 21 days
[9] = sc, 10 mg/kg once a day 14 days
[10] = po, 10 mg/kg once a day 14 days
[11] = po, 30 mg/kg once a day 14 days
[12] = po, 100 mg/kg once a day 14 days, 100 mg/kg
[13] = sc, 0.1 mg/kg once a day 14 days
[14] = sc, 0.3 mg/kg once a day 14 days
[15] = sc, 1.0 mg/kg once a day 14 days
[16] = sc, 3.0 mg/kg once a day 14 days
[17] = po, 1 mg/kg once a day 14 days, 1 mg/kg

SMILES: Cc1cc(NC(P(=O)(O)O)P(=O)(O)O)no1 [Manufacture Example 1, [(5-methyl-3-isoxazolyl)amino]methylene-bis(phosphonic acid)]
- ΔB.W. (adjuvant arthritis [1]; [6]): 238 ± 2 g
- Thickness of Paw, Left (adjuvant arthritis [1]; [6]): 1277 ± 19 × 0.01 mm
- Thickness of Paw, Right (adjuvant arthritis [1]; [6]): 1279 ± 27 × 0.01 mm
- ΔB.W. (adjuvant arthritis [1]; [7]): 239 ± 2 g
- Thickness of Paw, Left (adjuvant arthritis [1]; [7]): 1158 ± 12 × 0.01 mm
- Thickness of Paw, Right (adjuvant arthritis [1]; [7]): 1107 ± 25 × 0.01 mm
- ΔB.W. (adjuvant arthritis [1]; [8]): 233 ± 3 g
- Thickness of Paw, Left (adjuvant arthritis [1]; [8]): 1174 ± 14 × 0.01 mm
- Thickness of Paw, Right (adjuvant arthritis [1]; [8]): 1110 ± 28 × 0.01 mm
- Serum Ca++ ([2]; oral, 30 mg/kg, 72 hours before PTH injection): 1.48 ± 0.01 m mole/liter
- Serum Ca++ ([2]; oral, 100 mg/kg, 24 hours before PTH injection): 1.44 ± 0.02 m mole/liter
- Serum Ca++ ([2]; oral, 100 mg/kg, 72 hours before PTH injection): 1.16 ± 0.03 m mole/liter
- Serum Ca++ ([2]; oral, 300 mg/kg, 24 hours before PTH injection): 1.41 ± 0.01 m mole/liter
- Serum Ca++ ([2]; sc, 0.3 mg/kg, 24 hours before PTH injection): 1.43 ± 0.02 m mole/liter
- Serum Ca++ ([2]; sc, 1.0 mg/kg, 24 hours before PTH injection): 1.40 ± 0.01 m mole/liter
- Serum Ca++ ([2]; sc, 3.0 mg/kg, 24 hours before PTH injection): 1.36 ± 0.02 m mole/liter
- mortality [3]: no rats died
- Left humerus Ashed weight ([4]; oral, 10 mg/kg): 54.9 ± 1.3 mg
- Left humerus Ashed weight / Dry weight ([4]; oral, 10 mg/kg): 53.4 ± 0.3%
- Left humerus Dry weight ([4]; oral, 10 mg/kg): 102.8 ± 2.2 mg
- Left humerus Ashed weight ([4]; oral, 30 mg/kg): 61.0 ± 1.0 mg
- Left humerus Ashed weight / Dry weight ([4]; oral, 30 mg/kg): 54.4 ± 0.3%
- Left humerus Dry weight ([4]; oral, 30 mg/kg): 112.1 ± 1.4 mg
- Left humerus Ashed weight ([4]; oral, 100 mg/kg): 68.9 ± 1.3 mg
- Left humerus Ashed weight / Dry weight ([4]; oral, 100 mg/kg): 55.6 ± 0.2%
- Left humerus Dry weight ([4]; oral, 100 mg/kg): 123.9 ± 2.3 mg
- Left humerus Ashed weight ([4]; sc, 0.1 mg/kg): 64.9 ± 1.2 mg
- Left humerus Ashed weight / Dry weight ([4]; sc, 0.1 mg/kg): 56.9 ± 0.1%
- Left humerus Dry weight ([4]; sc, 0.1 mg/kg): 113.9 ± 2.0 mg
- Left humerus Ashed weight ([4]; sc, 0.3 mg/kg): 65.4 ± 1.6 mg
- Left humerus Ashed weight / Dry weight ([4]; sc, 0.3 mg/kg): 57.2 ± 0.3%
- Left humerus Dry weight ([4]; sc, 0.3 mg/kg): 114.4 ± 2.6 mg
- Left humerus Ashed weight ([4]; sc, 1.0 mg/kg): 70.1 ± 1.1 mg
- Left humerus Ashed weight / Dry weight ([4]; sc, 1.0 mg/kg): 57.8 ± 0.4%
- Left humerus Dry weight ([4]; sc, 1.0 mg/kg): 121.3 ± 2.1 mg
- Difference of Bone Ash Content (b) ([4]; sc, 3 mg/kg once a day 14 days): 4.8 ± 0.5 mg
- Difference of Bone Weight (a) ([4]; sc, 3 mg/kg once a day 14 days): 8.0 ± 1.0 mg
- Difference of Bone Ash Content (b) [4, 9]: 1.7 ± 0.5 mg
- Difference of Bone Weight (a) [4, 9]: 3.2 ± 0.7 mg
- Thickness of Paw (average of right and left paws) (adjuvant arthritis [5]; [10]): 1435 ± 49 × 0.01 mm
- ΔB.W. (adjuvant arthritis [5]; [10]): 23.3 ± 0.9 g
- Thickness of Paw (average of right and left paws) (adjuvant arthritis [5]; [11]): 1296 ± 45 × 0.01 mm
- ΔB.W. (adjuvant arthritis [5]; [11]): 32.8 ± 1.7 g
- Thickness of Paw (average of right and left paws) (adjuvant arthritis [5]; [12]): 1131 ± 36 × 0.01 mm and 1083 ± 36 × 0.01 mm
- ΔB.W. (adjuvant arthritis [5]; [12]): 50 ± 3 g and 43.3 ± 2.0 g
- Thickness of Paw (average of right and left paws) (adjuvant arthritis [5]; [13]): 1258 ± 31 × 0.01 mm
- ΔB.W. (adjuvant arthritis [5]; [13]): 40 ± 2 g
- Thickness of Paw (average of right and left paws) (adjuvant arthritis [5]; [14]): 1102 ± 36 × 0.01 mm
- ΔB.W. (adjuvant arthritis [5]; [14]): 50 ± 2 g
- Thickness of Paw (average of right and left paws) (adjuvant arthritis [5]; [15]): 956 ± 36 × 0.01 mm
- ΔB.W. (adjuvant arthritis [5]; [15]): 56 ± 4 g
- Thickness of Paw (average of right and left paws) (adjuvant arthritis [5]; [16]): 974 ± 32 × 0.01 mm
- ΔB.W. (adjuvant arthritis [5]; [16]): 56 ± 1 g

SMILES: COc1ccc2c(c1)c(CC(=O)O)c(C)n2C(=O)c1ccc(Cl)cc1 [Indometacin, reference compound]
- ΔB.W. (adjuvant arthritis [1]; po, 1 mg/kg once a day 21 days): 261 ± 7 g
- Thickness of Paw, Left (adjuvant arthritis [1]; po, 1 mg/kg once a day 21 days): 1096 ± 41 × 0.01 mm
- Thickness of Paw, Right (adjuvant arthritis [1]; po, 1 mg/kg once a day 21 days): 1028 ± 47 × 0.01 mm
- Thickness of Paw (average of right and left paws) (adjuvant arthritis [5]; [17]): 956 ± 32 × 0.01 mm and 1044 ± 46 × 0.01 mm and 931 ± 26 × 0.01 mm
- ΔB.W. (adjuvant arthritis [5]; [17]): 67 ± 4 g and 51 ± 4 g and 58.2 ± 1.9 g
